From ChEMBL document CHEMBL1125965, “Synthesis and pharmacological evaluation of novel Amino-prostanoids: potent and orally effective thromboxane A2 receptor antagonists” (Bioorg Med Chem Lett, 1991)
Values joined by “and” are separate entries in the source; they are usually repeats but may differ in a detail not shown here. Identical values can stand only once.

How the values were obtained:
Thromboxane A2 receptor [1] = target: T1, Thromboxane A2 receptor (Homo sapiens, UniProt P21731); test: In vitro thromboxane A2 receptor antagonism through inhibition of U-46619-induced platelet aggregation in human whole blood; type: functional, tissue-based; conditions: read-out: pA2 (converted)
T1 sequence (P21731 whole entry): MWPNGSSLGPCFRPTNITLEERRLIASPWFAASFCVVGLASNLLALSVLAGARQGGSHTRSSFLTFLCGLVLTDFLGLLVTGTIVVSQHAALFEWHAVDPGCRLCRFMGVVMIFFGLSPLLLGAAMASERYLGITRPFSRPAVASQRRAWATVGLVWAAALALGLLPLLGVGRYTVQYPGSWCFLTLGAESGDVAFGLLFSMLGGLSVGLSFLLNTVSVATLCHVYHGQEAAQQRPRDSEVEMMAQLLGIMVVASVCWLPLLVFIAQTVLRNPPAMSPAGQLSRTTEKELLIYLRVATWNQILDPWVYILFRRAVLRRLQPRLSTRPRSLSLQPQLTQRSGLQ

Thromboxane A2 receptor [2] = target: T2, Thromboxane A2 receptor (Rattus norvegicus, UniProt P34978); test: In vitro thromboxane A2 receptor antagonism through inhibition of U-46619-induced contraction of rat isolated thoracic aortic strip; type: functional; conditions: read-out: pA2 (converted)
T2 sequence (P34978 whole entry): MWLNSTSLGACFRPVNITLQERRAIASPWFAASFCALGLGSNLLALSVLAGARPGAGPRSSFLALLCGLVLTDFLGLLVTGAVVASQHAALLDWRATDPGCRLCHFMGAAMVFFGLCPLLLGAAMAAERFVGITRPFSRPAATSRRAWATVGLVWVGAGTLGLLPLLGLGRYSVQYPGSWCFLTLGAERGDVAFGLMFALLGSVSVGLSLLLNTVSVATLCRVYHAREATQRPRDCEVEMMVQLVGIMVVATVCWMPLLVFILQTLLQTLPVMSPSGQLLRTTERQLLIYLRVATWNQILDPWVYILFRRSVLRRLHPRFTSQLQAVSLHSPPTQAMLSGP

[3] = target: T3, Thromboxane A2 receptor (Rattus norvegicus) (UniProt P34978); test: In vitro thromboxane receptor antagonism through inhibition of U-46619-induced contraction of rat isolated thoracic aortic strip; type: functional
T3 sequence (whole entry): T2 sequence (P34978 whole entry)

Row | SMILES | Kb (Thromboxane A2 receptor [1]) | Kb (Thromboxane A2 receptor [2]) | pKb [3]
1 | CS(=O)(=O)Nc1ccccc1-c1ccc(CO[C@H]2CC[C@H](N3CCCCCC3)[C@H]2OC/C=C\CCC(=O)O)cc1 | 6.31 nM | 63.1 nM | –
2 | NC(=O)c1ccccc1-c1ccc(COC2CC[C@H](N3CCCCCC3)[C@H]2OC/C=C\CCC(=O)O)cc1 (stereo not given in full) | 15.8 nM | 15.8 nM | –
3 | O=C(O)CC/C=C\CO[C@H]1[C@@H](OCc2ccc(-c3ccccc3)cc2)CC[C@@H]1N1CCCCC1 | 10 nM and 7.94 nM | 31.6 nM and 50.1 nM | –
4 | O=C(O)CC/C=C\CO[C@H]1C(OCc2ccc(-c3ccccc3)cc2)CC[C@@H]1N1CCCCC1 (stereo not given in full) | 63.1 nM and 15.8 nM | – | –
5 | CC(=O)NCc1ccc(-c2ccc(COC3CC[C@H](N4CCCCCC4)[C@H]3OC/C=C\CCC(=O)O)cc2)cc1 (stereo not given in full) | 2.51 nM | 20 nM | –
6 | O=C(O)CC/C=C\CO[C@@H]1[C@@H](OCc2ccc(-c3ccccc3)cc2)CC[C@@H]1N1CCCCC1 | 100 nM | 1000 nM | –
7 | O=C(O)CC/C=C\CO[C@H]1C(OCc2ccc(-c3cccc(CO)c3)cc2)CC[C@@H]1N1CCCCCC1 (stereo not given in full) | 7.94 nM | 12.6 nM | –
8 | O=C(O)CC/C=C\CO[C@H]1[C@@H](OCc2ccc(-c3ccc(CO)cc3)cc2)CC[C@@H]1N1CCCCCC1 | 3.98 nM | 50.1 nM | –
9 | NC(=O)Cc1ccccc1-c1ccc(COC2CC[C@H](N3CCCCCC3)[C@H]2OC/C=C\CCC(=O)O)cc1 (stereo not given in full) | 7.94 nM | 158 nM | –
10 | O=C(O)CC/C=C\CO[C@H]1[C@@H](OCc2ccc(-c3cccc(CO)c3)cc2)CC[C@@H]1N1CCCCCC1 | 5.01 nM | 79.4 nM | –
11 | NC(=O)Cc1ccc(-c2ccc(COC3CC[C@H](N4CCCCCC4)[C@H]3OC/C=C\CCC(=O)O)cc2)cc1 (stereo not given in full) | 3.98 nM | 20 nM | –
12 | O=C(O)CC/C=C\CO[C@H]1[C@@H](OCc2ccc(-c3ccccc3)cc2)CC[C@@H]1N1CCCCCC1 | 5.01 nM | 39.8 nM | –
13 | CC(=O)NCc1ccccc1-c1ccc(COC2CC[C@H](N3CCCCCC3)[C@H]2OC/C=C\CCC(=O)O)cc1 (stereo not given in full) | 25.1 nM | 126 nM | –
14 | O=C(O)CC/C=C\CO[C@H]1C(OCc2ccc(-c3ccc(CO)cc3)cc2)CC[C@@H]1N1CCCCCC1 (stereo not given in full) | 3.16 nM | 20 nM | –
15 | NC(=O)c1ccc(-c2ccc(COC3CC[C@H](N4CCCCCC4)[C@H]3OC/C=C\CCC(=O)O)cc2)cc1 (stereo not given in full) | 3.16 nM | 20 nM | –
16 | O=C(O)CC/C=C\CO[C@H]1C(OCc2ccc(-c3ccccc3)cc2)CC[C@@H]1N1CCCCCC1 (stereo not given in full) | 12.6 nM | 25.1 nM | –
17 | O=C(O)CC/C=C\CO[C@H]1[C@@H](OCc2ccc(-c3ccccc3CO)cc2)CC[C@@H]1N1CCCCCC1 | 1.58 nM | 12.6 nM | –
18 | NC(=O)Nc1ccccc1-c1ccc(COC2CC[C@H](N3CCCCCC3)[C@H]2OC/C=C\CCC(=O)O)cc1 (stereo not given in full) | 7.94 nM | 63.1 nM | –
19 | O=C(O)CC/C=C\CO[C@H]1C(OCc2ccc(-c3ccccc3O)cc2)CC[C@@H]1N1CCCCCC1 (stereo not given in full) | 15.8 nM | 20 nM | –
20 | O=C(O)CC/C=C\CO[C@H]1C(OCc2ccc(-c3ccc(O)cc3)cc2)CC[C@@H]1N1CCCCCC1 (stereo not given in full) | 6.31 nM | 6.31 nM | –
21 | O=C(O)CC/C=C\CO[C@@H]1C(OCc2ccc(-c3ccccc3)cc2)CC[C@@H]1N1CCCCC1 (stereo not given in full) | 39.8 nM | 15.8 nM | –
22 | CNS(=O)(=O)Cc1ccccc1-c1ccc(COC2CC[C@H](N3CCCCCC3)[C@H]2OC/C=C\CCC(=O)O)cc1 (stereo not given in full) | 7.94 nM | 12.6 nM | –
23 | O=C(O)CC/C=C\CO[C@H]1C(OCc2ccc(-c3ccccc3CCO)cc2)CC[C@@H]1N1CCCCCC1 (stereo not given in full) | 2 nM | 31.6 nM | –
24 | CNS(=O)(=O)Cc1ccc(-c2ccc(COC3CC[C@H](N4CCCCCC4)[C@H]3OC/C=C\CCC(=O)O)cc2)cc1 (stereo not given in full) | 3.16 nM | 15.8 nM | –
25 | CS(=O)(=O)Nc1ccccc1-c1ccc(COC2CC[C@H](N3CCCCCC3)[C@H]2OC/C=C\CCC(=O)O)cc1 (stereo not given in full) | 10 nM | 3.98 nM | –
26 | CS(=O)(=O)Nc1cccc(-c2ccc(COC3CC[C@H](N4CCCCCC4)[C@H]3OC/C=C\CCC(=O)O)cc2)c1 (stereo not given in full) | 12.6 nM | 50.1 nM | –
27 | O=C(O)CC/C=C\CO[C@H]1C(OCc2ccc(-c3ccccc3CO)cc2)CC[C@@H]1N1CCCCCC1 (stereo not given in full) | 3.16 nM | 6.31 nM | –
28 | O=C(O)CC/C=C\CO[C@H]1[C@H](OCc2ccc(-c3ccccc3CO)cc2)CC[C@@H]1N1CCCCCC1 | 6.31 nM | – | 8.5
